What was measured:
Assay in all cases: MIC of Ceftazidime in presence of test compound, agar dilution (CLSI)
Assay type in all cases: cell-based
[1] = tested on: E. coli M50; details: compound present at 4 mcg/ml
Method: (§1) The biological activity of representative compounds according to the invention against various bacterial strains was investigated. In a typical study, overnight grown bacterial cultures were diluted appropriately and inoculated on the agar media containing doubling dilutions of the test compounds. Observation for growth or no growth was performed after 16-20 hours of incubation at 35±2° C. in ambient air. The overall procedure was performed as per Clinical and Laboratory Standards Institute (CLSI) recommendations (Clinical and Laboratory Standards Institute (CLSI), Performance Standards for Antimicrobial Susceptibility Testing, 20th Informational Supplement, M 100-S20, Volume 30, No. 1, 2010).
(§2) The antibacterial activity of representative compounds according to the invention was also investigated in combination with at least one antibacterial agent using the above study protocol and the results are given Table 3 and 4.

[2] = tested on: E. coli NCTC 13351; details: compound present at 4 mcg/ml, Table 3
Method: as §1, §2

[3] = tested on: E. coli 7MP; details: compound present at 4 mcg/ml
Method: as §1, §2

[4] = tested on: A. baumannii 13304; details: A. baumannii 13304, Class D ESBL; compound present at 4 mcg/ml; Table 4
Method: as §1, §2

[5] = tested on: A. baumannii 13301; details: A. baumannii 13301, Class D ESBL; compound present at 4 mcg/ml; Table 4
Method: as §1, §2

[6] = tested on: E. coli B 89; details: E. coli B 89, Class C ESBL; compound present at 4 mcg/ml; Table 4
Method: as §1, §2

[7] = tested on: E. coli W 13352; details: E. coli W 13352, Class A ESBL; compound present at 4 mcg/ml; Table 4
Method: as §1, §2

[8] = tested on: E. coli W 13351; details: E. coli W 13351, Class A ESBL; compound present at 4 mcg/ml; Table 4
Method: as §1, §2

[9] = tested on: K. pneumoniae H 520; details: K. pneumoniae H 520, KPC ESBL; compound present at 4 mcg/ml; Table 4
Method: as §1, §2

[10] = tested on: K. pneumoniae H 522; details: K. pneumoniae H 522, KPC ESBL; compound present at 4 mcg/ml; Table 4
Method: as §1, §2

[11] = tested on: K. pneumoniae H 521; details: K. pneumoniae H 521, KPC ESBL; compound present at 4 mcg/ml; Table 4
Method: as §1, §2

[12] = tested on: E. coli W 13353; details: E. coli W 13353, Class A ESBL; compound present at 4 mcg/ml; Table 4
Method: as §1, §2

SMILES | Activity of Ceftazidime (MIC) in presence of compound ([1]; E. coli M50, Table 3) | Activity of Ceftazidime (MIC) in presence of compound [2] | Activity of Ceftazidime (MIC) in presence of compound ([3]; Table 3) | further results
CCc1nnc([C@H]2CC[C@@H]3CN2C(=O)N3OS(=O)(=O)[O-])o1.[Na+] (relative stereo) [Example 2, Sodium salt of trans-6-(sulphooxy)-2-(5-ethyl-[1,3,4]-oxadiazol-2-yl)-7-oxo-1,6-diazabicyclo[3.2.1]-octane] | 16 µg/mL | 16 µg/mL | 32 µg/mL | 
O=C1N2C[C@@H](CC[C@@H]2c2nnc(C(F)(F)F)o2)N1OS(=O)(=O)[O-].[Na+] (relative stereo) [Example 3, Sodium salt of trans-6-(sulphooxy)-2-(5-trifluoromethyl-[1,3,4]-oxadiazol-2-yl)-7-oxo-1,6-diazabicyclo[3.2.1]-octane] | 16 µg/mL | 16 µg/mL | 32 µg/mL | 
NC(=O)c1nnc([C@H]2CC[C@@H]3CN2C(=O)N3OS(=O)(=O)O)o1.[Na] (relative stereo) [Example 4, Sodium salt of trans-6-(sulphooxy)-2-(5-carboxamido-[1,3,4]-oxadiazol-2-yl)-7-oxo-1,6-diazabicyclo[3.2.1]-octane] | 1 µg/mL | 0.5 µg/mL | 2 µg/mL | Activity of Ceftazidime (MIC) in presence of compound [4]: 8 µg/mL; Activity of Ceftazidime (MIC) in presence of compound ([1]; E. coli M 50, Class C ESBL, Table 4): 1 µg/mL; Activity of Ceftazidime (MIC) in presence of compound [5]: >32 µg/mL; Activity of Ceftazidime (MIC) in presence of compound [6]: 1 µg/mL; Activity of Ceftazidime (MIC) in presence of compound [7]: 1 µg/mL; Activity of Ceftazidime (MIC) in presence of compound [8]: 0.5 µg/mL; Activity of Ceftazidime (MIC) in presence of compound [9]: 1 µg/mL; Activity of Ceftazidime (MIC) in presence of compound [10]: 1 µg/mL; Activity of Ceftazidime (MIC) in presence of compound [11]: 1 µg/mL; Activity of Ceftazidime (MIC) in presence of compound [12]: 0.25 µg/mL; Activity of Ceftazidime (MIC) in presence of compound ([3]; Class C ESBL, Table 4): 2 µg/mL
O=C1N2C[C@@H](CC[C@@H]2c2nnc(-c3ccon3)o2)N1OS(=O)(=O)[O-].[Na+] (relative stereo) [Example 5, Sodium salt of trans-6-(sulphooxy)-2-(5-(isooxazol-3-yl)-[1,3,4]-oxadiazol-2-yl)-7-oxo-1,6-diazabicyclo[3.2.1]-octane] | 4 µg/mL | 4 µg/mL | 16 µg/mL | 
O=C1N2C[C@@H](CC[C@@H]2c2nnc(-c3ccco3)o2)N1OS(=O)(=O)[O-].[Na+] (relative stereo) [Example 6, Sodium salt of trans-6-(sulphooxy)-2-(5-(furan-2-yl)-[1,3,4]-oxadiazol-2-yl)-7-oxo-1,6-diazabicyclo[3.2.1]-octane] | 16 µg/mL | 32 µg/mL | 32 µg/mL | 
O=C1N2C[C@@H](CC[C@@H]2c2nnc(-c3ccccc3)o2)N1OS(=O)(=O)O.[Na] (relative stereo) [Example 7, Sodium salt of trans-6-(sulphooxy)-2-(5-phenyl-[1,3,4]-oxadiazol-2-yl)-7-oxo-1,6-diazabicyclo[3.2.1]-octane] | 16 µg/mL | 16 µg/mL | 32 µg/mL | 
O=C1N2C[C@@H](CC[C@@H]2c2nnc(-c3ccccn3)o2)N1OS(=O)(=O)[O-].[Na+] (relative stereo) [Example 8, Sodium salt of trans-6-(sulphooxy)-2-(5-(pyridin-2-yl)-[1,3,4]-oxadiazol-2-yl)-7-oxo-1,6-diazabicyclo[3.2.1]-octane] | 16 µg/mL | 16 µg/mL | 32 µg/mL | 
NC(=O)c1cccc(-c2nnc([C@H]3CC[C@@H]4CN3C(=O)N4OS(=O)(=O)O)o2)n1.[Na] (relative stereo) [Example 9, Sodium salt of trans-6-(sulphooxy)-2-(5-(6-carboxamido-pyridin-2-yl)-[1,3,4]-oxadiazol-2-yl)-7-oxo-1,6-diazabicyclo[3.2.1]-octane] | 8 µg/mL | 2 µg/mL | >32 µg/mL | 
O=C1N2C[C@@H](CC[C@@H]2c2nnc(-c3cn4c(n3)COCC4)o2)N1OS(=O)(=O)O.[Na] (relative stereo) [Example 10, Sodium salt of trans-6-(sulphooxy)-2-(5-(5,6-dihydro-8H-imidazo[2,1-c][1,4]-oxazin-2-yl)-[1,3,4]-oxadiazol-2-yl)-7-oxo-1,6-diazabicyclo[3.2.1]-octane] | 16 µg/mL | 16 µg/mL | 32 µg/mL | 
O=C1N2C[C@@H](CC[C@@H]2c2nnc(CN3CCOCC3)o2)N1OS(=O)(=O)O.[Na] (relative stereo) [Example 11, Sodium salt of trans-6-(sulphooxy)-2-(5-(morpholino-4-methyl)-[1,3,4]-oxadiazol-2-yl)-7-oxo-1,6-diazabicyclo[3.2.1]-octane] | 2 µg/mL | 1 µg/mL | 32 µg/mL | 
O=C(c1nnc([C@H]2CC[C@@H]3CN2C(=O)N3OS(=O)(=O)[O-])o1)N1CCOCC1.[Na+] (relative stereo) [Example 12, Sodium salt of trans-sulfuric acid mono-[2-(5-(morpholin-4-yl-carbonyl)-[1,3,4]-oxadiazol-2-yl)-7-oxo-1,6-diazabicyclo[3.2.1]-octan-6-yl]ester] | 8 µg/mL | 2 µg/mL | 16 µg/mL | 
